Reference: US10322132B2, “Prevention or treatment of uratic or gouty diseases” (SHANTON PHARMA CO., LTD., priority 2015, dated 2019)
Values belong to the compound of their own block, whether it stands above or below them.

Experiments:
serum uric acid = test: Uric acid-lowering test in monkeys having hyperuricemia (UA subcutaneous injection); assay type: in vivo, cynomolgus monkeys; set-up: Reduction rate or serum uric acid: concentration or dose not given beside the values; details: for Content of serum uric acid: Administration group
Experimental: The experiment was conducted by reference to Komoriya K, Osada Y, Hasegawa M, Horiuchi H, Kondo S, Couch R C, Griffin T B. Hypouricemic effect of allopurinol and the novel xanthine oxidase inhibitor TEI-6720 in chimpanzees. Eur J Pharmacol. 1993 Dec. 21; 250(3): 455-60.
In the Model group, three non-naïve cynomolgus monkeys (1 #, 2 # and 3 #) were administered with UA by subcutaneous injection at the nape. Blood was collected from the vein before UA administration and 0.5 h, 1 h, 2 h, 4 h, 6 h and 24 h after UA administration. The blood was left still at room temperature. The serum was collected by centrifugation. The content of serum uric acid was measured.
In the Administration group, three non-naïve cynomolgus monkeys (1 #, 2 # and 3 #) were administered with the test sample by intravenous injection after 2 weeks of clearance. Blood was collected from the vein before administration and 2 h after administration of test sample. Then, the monkeys were administered with UA by subcutaneous injection at the nape and blood was collected from the vein 1 h, 2 h and 4 h after the UA administration. The blood was left still at room temperature. The serum was collected by centrifugation. The content of serum uric acid was measured. Reduction rate of serum uric acid in healthy monkeys administered with test sample=(average uric acid content before administration−average uric acid content 2 h after administration of test sample)/average uric acid content before administration*100%, Reduction rate of serum uric acid in monkeys having hyperuricemia after administration of test sample=(uric acid content after UA administration in the model group−uric acid content after UA administration in the administration group)/uric acid content in the model group*(100%).
That was, the samples were collected before administration, 2 h after administration of test sample and 1 h, 2 h and 4 h after UA administration for determination of the serum uric acid content. The contents of serum uric acid in the model group and the administration group and the reduction rates of serum uric acid were shown in the following Tables 3-1, 3-2 and 3-3, respectively.

[1] = target: T1, human urate transporter 1 (hURAT1) (Homo sapiens, UniProt Q96S37); test: Uptake of 14C-labeled uric acid in hURAT1 transfected cells; assay type: cell-based; details: 14C uric acid uptake, hURAT1-transfected HEK-293T cells, 5 min at 37° C.; read-out: IC50 (μM), inhibition of hURAT1 activity
T1 construct: expressed in transfected cells; host or cells: HEK-293T
T1 sequence (Q96S37 1-553): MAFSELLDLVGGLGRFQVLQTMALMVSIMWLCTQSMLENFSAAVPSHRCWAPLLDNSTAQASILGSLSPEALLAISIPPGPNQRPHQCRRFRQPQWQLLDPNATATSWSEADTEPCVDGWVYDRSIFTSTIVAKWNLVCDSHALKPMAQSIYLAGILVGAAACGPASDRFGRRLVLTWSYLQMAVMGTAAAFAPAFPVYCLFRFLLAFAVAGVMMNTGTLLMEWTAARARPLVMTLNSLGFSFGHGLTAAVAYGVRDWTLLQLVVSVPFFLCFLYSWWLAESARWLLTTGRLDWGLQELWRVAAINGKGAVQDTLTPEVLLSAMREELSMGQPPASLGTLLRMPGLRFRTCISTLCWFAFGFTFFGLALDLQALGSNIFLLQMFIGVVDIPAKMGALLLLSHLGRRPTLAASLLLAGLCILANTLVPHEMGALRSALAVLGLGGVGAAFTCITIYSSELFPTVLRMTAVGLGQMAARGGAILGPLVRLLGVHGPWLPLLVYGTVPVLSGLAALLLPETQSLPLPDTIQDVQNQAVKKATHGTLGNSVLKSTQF

IL-1β, IL-6, KC and TNFα = test: Air sacculitis (MSU-induced air sacs), cytokines in lavage fluid; details: for IL-1β / KC / TNF-α: lavage fluid supernatant, mean, n = 8
Experimental: (§1) The sterile MSU crystals were added to 5 mL of sterilized saline before injected into air sacs.
(§2) Male Wistar rats were raised for one week and then randomly divided into 6 groups. Animals were anesthetized and then injected with 24 mL of sterile air in their backs. The animals received the second injection of air 4 days later. On day 7, the rats in the blank group and model group were intragastrically administered with the solvent at a dose of 10 mL/kg; the rats in the dexamethasone group were administered by intraperitoneal injection with dexamethasone at a dose of 5 mg/kg; the rats in the colchicine group were intragastrically administered with colchicine at a dose of 5 mg/kg. […] One hour after administration, the rats in the blank group were injected with 5 mL of saline into the air sacs at the back, and the rats from other groups were injected with 5 mL of MSU crystal suspension (1 mg/mL) into the air sacs at the back. Four hours later, the lavage fluid in the air sacs was taken, and a portion of the lavage fluid was used for cytological analysis. The remaining was centrifuged at 8000 rpm for 15 min, and the supernatant was stored at −80° C. for the detection of cytokines IL-1β, IL-6, KC and TNFα. The test results were shown as mean±SEM and statistically analyzed by t-test.

MSU-induced air sacs = test: Air sacculitis (MSU-induced air sacs), leukocyte counts in lavage fluid; details: for Leukocyte count: Basophil / Leukocyte count: Eosinocyte / Leukocyte count: Lymphocyte / Leukocyte count: Monocyte / Leukocyte count: Neutrophil / Total cell count: lavage fluid 4 h after MSU, mean ± SEM, n = 8;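 for all read-outs here: male Wistar rats with dorsal air sacs, dosed 1 h before injecting MSU crystal suspension, compared with saline-injected blank and vehicle-treated model groups, cytological analysis of lavage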
Experimental: as §1, §2

TNF-α = test: LPS-induced TNF-α release; assay type: in vivo, Male BALB/C mice
Experimental: The experiment was conducted by reference to Pascale Gaillard, Isabelle Jeanclaude-Etter, etc. Design and Synthesis of the First Generation of Novel Potent, Selective, and in Vivo Active (Benzothiazol-2-yl)acetonitrile
BALB/C mice were raised in the SPF-grade animal room for 1 week, and were then randomly divided into the corresponding model group and the administration groups according to the body weight. The […] were administered with the solvent or the test samples by subcutaneous injection at a dose of 10 mg/kg. The rats were administered with LPS by intraperitoneal injection at a dose of 15 mg/kg 30 min after the administration of the solvent or the test samples. The mice were anesthetized with sodium pentobarbital (45 mg/kg by intraperitoneal injection) 1 h after LPS administration. The blood was collected by cardiac puncture, and the content of TNF-α (tumor necrosis factor) in plasma was measured with a Mouse TNF-α Elisa Ready-set-go kit.

SMILES: CCCCCn1c(=O)[nH]c(=O)c2[nH]c(Cl)nc21 [Compound A, 8-chloro-3-pentyl-3,7-dihydro-1H-purine-2,6-dione]
Reduction rate or serum uric acid (serum uric acid; 1 h after UA administration vs model group, animal 1#): 35.5% | Reduction rate or serum uric acid (serum uric acid; 1 h after UA administration vs model group, animal 2#): 26.2% | Reduction rate or serum uric acid (serum uric acid; 1 h after UA administration vs model group, animal 3#): 56.0% | Reduction rate or serum uric acid (serum uric acid; 1 h after UA administration vs model group, mean): 39.2% | Reduction rate or serum uric acid (serum uric acid; 2 h after UA administration vs model group, animal 1#): 67.1% | Reduction rate or serum uric acid (serum uric acid; 2 h after UA administration vs model group, animal 2#): 37.2% | Reduction rate or serum uric acid (serum uric acid; 2 h after UA administration vs model group, animal 3#): 45.5% | Reduction rate or serum uric acid (serum uric acid; 2 h after UA administration vs model group, mean): 49.1% | Reduction rate or serum uric acid (serum uric acid; 2 h after administration of test sample vs before administration (healthy monkeys), animal 1#): 46.4% | Reduction rate or serum uric acid (serum uric acid; 2 h after administration of test sample vs before administration (healthy monkeys), animal 2#): 30.2% | Reduction rate or serum uric acid (serum uric acid; 2 h after administration of test sample vs before administration (healthy monkeys), animal 3#): 1.56% | Reduction rate or serum uric acid (serum uric acid; 2 h after administration of test sample vs before administration (healthy monkeys), mean): 26.1% | Reduction rate or serum uric acid (serum uric acid; 4 h after UA administration vs model group, animal 1#): 64.3% | Reduction rate or serum uric acid (serum uric acid; 4 h after UA administration vs model group, animal 2#): 77.1% | Reduction rate or serum uric acid (serum uric acid; 4 h after UA administration vs model group, animal 3#): 32.6% | Reduction rate or serum uric acid (serum uric acid; 4 h after UA administration vs model group, mean): 58.0% | Content of serum uric acid (serum uric acid; 1 h after UA administration, animal 1#): 75.3 µmol/L | Content of serum uric acid (serum uric acid; 1 h after UA administration, animal 2#): 97.5 µmol/L | Content of serum uric acid (serum uric acid; 1 h after UA administration, animal 3#): 53.1 µmol/L | Content of serum uric acid (serum uric acid; 1 h after UA administration, mean): 75.3 µmol/L | Content of serum uric acid (serum uric acid; 2 h after UA administration, animal 1#): 26.6 µmol/L | Content of serum uric acid (serum uric acid; 2 h after UA administration, animal 2#): 58.0 µmol/L | Content of serum uric acid (serum uric acid; 2 h after UA administration, animal 3#): 37.0 µmol/L | Content of serum uric acid (serum uric acid; 2 h after UA administration, mean): 40.5 µmol/L | Content of serum uric acid (serum uric acid; 4 h after UA administration, animal 1#): 28.4 µmol/L | Content of serum uric acid (serum uric acid; 4 h after UA administration, animal 2#): 12.3 µmol/L | Content of serum uric acid (serum uric acid; 4 h after UA administration, animal 3#): 43.2 µmol/L | Content of serum uric acid (serum uric acid; 4 h after UA administration, mean): 28.0 µmol/L | Content of serum uric acid (serum uric acid; intravenous, 2 h after administration of test sample (before UA), animal 1#): 12.3 µmol/L | Content of serum uric acid (serum uric acid; intravenous, 2 h after administration of test sample (before UA), animal 2#): 37.0 µmol/L | Content of serum uric acid (serum uric acid; intravenous, 2 h after administration of test sample (before UA), animal 3#): 34.6 µmol/L | Content of serum uric acid (serum uric acid; intravenous, 2 h after administration of test sample (before UA), mean): 28.0 µmol/L | effect on content of serum uric acid in the test monkeys (in words) (serum uric acid; compared to the model group (self-comparation)): significantly reduce | IC50 [1]: 2.52 µM | IL-1β (IL-1β, IL-6, KC and TNFα; 30 mg/kg intragastric): 79.2 pg/mL | KC (IL-1β, IL-6, KC and TNFα; 30 mg/kg intragastric): 8742.1 pg/mL | TNF-α (IL-1β, IL-6, KC and TNFα; 30 mg/kg intragastric): 29.7 pg/mL | IL-1β (IL-1β, IL-6, KC and TNFα; 100 mg/kg intragastric): 88.6 pg/mL | KC (IL-1β, IL-6, KC and TNFα; 100 mg/kg intragastric): 5757.4 pg/mL | TNF-α (IL-1β, IL-6, KC and TNFα; 100 mg/kg intragastric): 18.7 pg/mL | effect on increase of IL-6, KC and TNFα (in words) (IL-1β, IL-6, KC and TNFα; oral dose of 100 mg/kg): significantly inhibit | Leukocyte count: Basophil (MSU-induced air sacs; 30 mg/kg intragastric): 0 ± 0 *10^4/air sacs | Leukocyte count: Eosinocyte (MSU-induced air sacs; 30 mg/kg intragastric): 5.8 ± 1.2 *10^4/air sacs | Leukocyte count: Lymphocyte (MSU-induced air sacs; 30 mg/kg intragastric): 8.1 ± 1.2 *10^4/air sacs | Leukocyte count: Monocyte (MSU-induced air sacs; 30 mg/kg intragastric): 174.2 ± 35.4 *10^4/air sacs | Leukocyte count: Neutrophil (MSU-induced air sacs; 30 mg/kg intragastric): 18.6 ± 6.4^$ *10^4/air sacs | Total cell count (MSU-induced air sacs; 30 mg/kg intragastric): 206.8 ± 42.9^$ *10^4/air sacs | Leukocyte count: Basophil (MSU-induced air sacs; 100 mg/kg intragastric): 0 ± 0 *10^4/air sacs | Leukocyte count: Eosinocyte (MSU-induced air sacs; 100 mg/kg intragastric): 4.6 ± 1.4 *10^4/air sacs | Leukocyte count: Lymphocyte (MSU-induced air sacs; 100 mg/kg intragastric): 8.0 ± 1.9 *10^4/air sacs | Leukocyte count: Monocyte (MSU-induced air sacs; 100 mg/kg intragastric): 151.4 ± 24.1 *10^4/air sacs | Leukocyte count: Neutrophil (MSU-induced air sacs; 100 mg/kg intragastric): 12.2 ± 3.4^$ *10^4/air sacs | Total cell count (MSU-induced air sacs; 100 mg/kg intragastric): 176.2 ± 29.6^$$$ *10^4/air sacs | effect on increase of the total cell count and neutrophil count in the lavage fluid caused by MSU (in words) (MSU-induced air sacs; compound A at the oral doses of 30 mg/kg and 100 mg/kg): significantly inhibit

IC50 [1]: 0.87 µM
SMILES: CCCCCn1c(=O)n(C)c(=O)c2[nH]c(Cl)nc21 [Compound D, 8-chloro-1-methyl-3-pentyl-3,7-dihydro-1H-purine-2,6-dione]
inhibition (%) (TNF-α; TNF-α in plasma vs model group, 10 mg/kg subcutaneous): 29.6% | effect on content of TNF-α in the plasma of the test mice (in words) (TNF-α; compared with the model group): significantly reduce | Content of TNF-α (TNF-α; plasma, 10 mg/kg subcutaneous 30 min before LPS 15 mg/kg i.p., 1 h after LPS): 1124 pg/mL
